The source of these data is US12038430B2, “Methods for high-content drug screening” (The Regents of the University of California, priority 2018, dated 2024).

The assay deals with human wildtype CFTR. As to the kind of experiment: Iodide transport / YFP quenching CFTR activation assay in FRT cells on micropillar array. The assay is classed as cell-based. Particulars: 10 μM forskolin in alginate hydrogel, 10 min contact, FRT cells expressing human CFTR and YFP, versus neighboring area without forskolin. Here is the method: FRT cells stably expressing human wildtype CFTR and yellow fluorescent protein YFP-H148/I152L were cultured on polyester transwell filters until they formed a tight monolayer (electrical resistance >3 kOhm·cm^2), as previously described in the art. The cell culture medium was then replaced with a viscous solution consisting of 2% methylcellulose (about 41,000 daltons, Sigma-Aldrich) in PBS. The cell layer was contacted with a 10×10 micropillar array for 10 min, and then the viscous solution was rinsed. For transport measurement, an iodide-containing solution (PBS with 120 mM chloride was replaced by iodide) was added manually on top of the cell layer. YFP fluorescence of the entire cell culture area was monitored for 5 min at 10 Hz using a 2× magnification lens (CFI Plan Apo Lambda 2X, Nikon, Melville, NY) with EMCCD camera detector (C9100, Hamamatsu). YFP fluorescence is reduced as the added extracellular iodide is transported into cell cytoplasm through activated CFTR. The time course of fluorescence for each of the 100 locations, each integrated over the 100-μm diameter circular cell area overlying the corresponding micropillar well, was determined using ImageJ. […]
CFTR function was determined from the kinetics of YFP fluorescence quenching following addition of an iodide-containing solution on the apical surface of the cell monolayer. […]

For the molecule `C=C[C@@]1(C)CC(=O)[C@]2(O)[C@@]3(C)[C@@H](O)CCC(C)(C)[C@@H]3[C@H](O)[C@H](OC(C)=O)[C@@]2(C)O1` [Forskolin, forskolin], the “increase of initial curve slope of YFP fluorescence quenching (CFTR activation)” value is “more than 14 fold”.
